# Values quoted from earlier work, collected in patent publication US8648072B2, “Cannabinoid receptor antagonists/inverse agonists useful for treating metabolic disorders, including obesity and diabetes” (Jenrin Discovery, Inc., priority 2009, dated 2014).
# System: patients with type 2 diabetes
# Details: after six months of treatment; baseline value of 7.9; placebo group 0.3%
compound,measurement,value
Cc1c(C(=O)NN2CCCCC2)nn(-c2ccc(Cl)cc2Cl)c1-c1ccc(Cl)cc1 [rimonabant],HbA1c levels lowered,0.8%
